Literature values in patent US9956241B2, “Application of American Ginseng to enhance neurocognitive function” (priority 2009, dated 2018).

Columns and labels:
[1] = system: synaptosomal uptake of norepinephrine, dopamine, serotonin and GABA
[2] = system: brain serotonin concentrations; settings: in vivo
[3] = system: choline acetyltransferase; settings: rodent brains
[4] = system: central cholinergic nerve endings
[5] = system: choline acetyltransferase and nerve growth factor messenger RNA; settings: rat brains
[6] = system: LTP in the hippocampal formation; settings: in vivo; rats
plasma corticosterone = settings: rodents
[7] = system: human neuronal nicotinic acetylcholine receptors

CC(C)=CCC[C@](C)(O[C@@H]1O[C@H](CO)[C@@H](O)[C@H](O)[C@H]1O)[C@H]1CC[C@]2(C)[C@@H]1[C@H](O)C[C@@H]1[C@@]3(C)CC[C@H](O[C@@H]4O[C@H](CO)[C@@H](O)[C@H](O)[C@H]4O[C@@H]4O[C@H](CO)[C@@H](O)[C@H](O)[C@H]4O)C(C)(C)[C@@H]3CC[C@]12C [Rd, ginsenoside Rd]
corticosterone secretion (corticosterone secretion): affect corticosterone secretion
synaptosomal uptake of norepinephrine, dopamine, serotonin and GABA [1]: may inhibit

CC(C)=CCC[C@](C)(O[C@@H]1O[C@H](CO)[C@@H](O)[C@H](O)[C@H]1O)[C@H]1CC[C@]2(C)[C@@H]1[C@H](O)C[C@@H]1[C@@]3(C)CC[C@H](O)C(C)(C)[C@@H]3[C@@H](O[C@@H]3O[C@H](CO)[C@@H](O)[C@H](O)[C@H]3O)C[C@]12C [Rg1, ginsenoside Rg1]
brain serotonin concentrations [2]: marked alterations
choline acetyltransferase levels [3]: increase choline acetyltransferase levels

CC(C)=CCC[C@](C)(O[C@@H]1O[C@H](CO[C@@H]2O[C@H](CO)[C@@H](O)[C@H](O)[C@H]2O)[C@@H](O)[C@H](O)[C@H]1O)[C@H]1CC[C@]2(C)[C@@H]1[C@H](O)C[C@@H]1[C@@]3(C)CC[C@H](O[C@@H]4O[C@H](CO)[C@@H](O)[C@H](O)[C@H]4O[C@@H]4O[C@H](CO)[C@@H](O)[C@H](O)[C@H]4O)C(C)(C)[C@@H]3CC[C@]12C [Rb1, ginsenoside Rb1]
acetylcholine release and reuptake, number of choline uptake sites ([4]; hippocampus, to a lesser extent cortex): modulation
acetylcholine release ([4]; isolated Rb1): stimulate acetylcholine release
synaptosomal choline uptake ([4]; isolated Rb1): increase synaptosomal choline uptake
brain serotonin concentrations [2]: marked alterations
expression of choline acetyltransferase and nerve growth factor messenger RNA [5]: increased expression
LTP in the hippocampal formation [6]: modulation of LTP
stress-induced increases in plasma corticosterone (plasma corticosterone): inhibit
choline acetyltransferase levels [3]: increase choline acetyltransferase levels

CC(C)=CCC[C@](C)(O[C@@H]1O[C@H](CO)[C@@H](O)[C@H](O)[C@H]1O)[C@H]1CC[C@]2(C)[C@@H]1[C@H](O)C[C@@H]1[C@@]3(C)CC[C@H](O)C(C)(C)[C@@H]3[C@@H](O[C@@H]3O[C@H](CO)[C@@H](O)[C@H](O)[C@H]3O[C@@H]3O[C@@H](C)[C@H](O)[C@@H](O)[C@H]3O)C[C@]12C [Re, ginsenoside Re]
synaptosomal uptake of norepinephrine, dopamine, serotonin and GABA [1]: may inhibit

CC(C)=CCC[C@](C)(O)[C@H]1CC[C@]2(C)[C@@H]1[C@H](O)C[C@@H]1[C@@]3(C)CC[C@H](O)C(C)(C)[C@@H]3[C@@H](O[C@@H]3O[C@H](CO)[C@@H](O)[C@H](O)[C@H]3O[C@@H]3O[C@@H](C)[C@H](O)[C@@H](O)[C@H]3O)C[C@]12C [Rg2, ginsenoside Rg2]
interaction with nicotinic receptor subtypes [7]: direct interaction
